Experimental data as given in ChEMBL document CHEMBL1909046, “DrugMatrix in vitro pharmacology data”.

Tests used:
[1] = target: 5-hydroxytryptamine receptor 2B (Homo sapiens, UniProt P41595); type: cell membranes, CHO-K1, Membrane; conditions: cho-k1; further: in other assays of this panel Not Active means under 50% inhibition at 10 µM
[2] = target: 5-hydroxytryptamine receptor 6 (Homo sapiens, UniProt P50406); type: cell membranes, HeLa, Membrane; conditions: hela; further: in other assays of this panel Not Active means under 50% inhibition at 10 µM
[3] = target: T1, Thromboxane-A synthase (Homo sapiens, UniProt P24557); experiment: biochemical; type: tissue-based, Platelet; conditions: platelet;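 further: enzyme inhibition assay with PGH2 supplied as substrate; in other assays of this panel Not Active means under 50% inhibition at 10 µM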
T1 sequence (P24557 whole entry): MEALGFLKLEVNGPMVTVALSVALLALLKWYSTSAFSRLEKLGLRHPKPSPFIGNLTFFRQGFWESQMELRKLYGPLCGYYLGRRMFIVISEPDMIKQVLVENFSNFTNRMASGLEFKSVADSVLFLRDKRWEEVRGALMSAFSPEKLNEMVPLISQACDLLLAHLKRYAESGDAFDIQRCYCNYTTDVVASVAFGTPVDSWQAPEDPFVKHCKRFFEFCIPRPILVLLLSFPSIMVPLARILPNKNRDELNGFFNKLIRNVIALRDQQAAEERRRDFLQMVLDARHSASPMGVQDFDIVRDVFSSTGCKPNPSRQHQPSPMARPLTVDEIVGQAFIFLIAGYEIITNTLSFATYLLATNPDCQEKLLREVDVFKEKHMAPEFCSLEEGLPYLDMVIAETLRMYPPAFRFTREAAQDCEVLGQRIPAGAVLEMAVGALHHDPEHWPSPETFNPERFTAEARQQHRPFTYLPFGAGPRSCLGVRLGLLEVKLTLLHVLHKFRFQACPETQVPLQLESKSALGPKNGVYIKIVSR

[4] = target: Vasopressin V1a receptor (Homo sapiens, UniProt P37288); type: cell membranes, Membrane; conditions: hek293; further: in other assays of this panel Not Active means under 50% inhibition at 10 µM
Sequence of Vasopressin V1a receptor (P37288 whole entry): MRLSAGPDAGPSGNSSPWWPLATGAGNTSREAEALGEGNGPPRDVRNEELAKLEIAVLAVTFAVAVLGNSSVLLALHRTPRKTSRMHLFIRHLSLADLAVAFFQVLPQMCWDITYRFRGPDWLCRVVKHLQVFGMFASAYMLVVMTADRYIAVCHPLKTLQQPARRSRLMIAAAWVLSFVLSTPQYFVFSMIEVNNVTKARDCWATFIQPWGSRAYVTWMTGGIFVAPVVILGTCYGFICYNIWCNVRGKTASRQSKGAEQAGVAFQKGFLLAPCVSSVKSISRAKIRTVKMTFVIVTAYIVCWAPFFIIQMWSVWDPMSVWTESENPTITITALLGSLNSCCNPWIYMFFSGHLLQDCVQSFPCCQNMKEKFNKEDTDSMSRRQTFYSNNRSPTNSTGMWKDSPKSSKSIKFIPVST

[5] = target: Cannabinoid receptor 1 (Homo sapiens, UniProt P21554); type: cell membranes, Membrane; conditions: chem-1; further: in other assays of this panel Not Active means under 50% inhibition at 10 µM
[6] = target: C-C chemokine receptor type 2 (Homo sapiens, UniProt P41597); type: cell membranes, CHO-K1, Membrane; conditions: cho-k1; further: in other assays of this panel Not Active means under 50% inhibition at 10 µM
[7] = target: T2, C-C chemokine receptor type 4 (Homo sapiens, UniProt P51679); type: cell membranes, Membrane; conditions: chem-1; further: in other assays of this panel Not Active means under 50% inhibition at 10 µM
T2 sequence (P51679 whole entry): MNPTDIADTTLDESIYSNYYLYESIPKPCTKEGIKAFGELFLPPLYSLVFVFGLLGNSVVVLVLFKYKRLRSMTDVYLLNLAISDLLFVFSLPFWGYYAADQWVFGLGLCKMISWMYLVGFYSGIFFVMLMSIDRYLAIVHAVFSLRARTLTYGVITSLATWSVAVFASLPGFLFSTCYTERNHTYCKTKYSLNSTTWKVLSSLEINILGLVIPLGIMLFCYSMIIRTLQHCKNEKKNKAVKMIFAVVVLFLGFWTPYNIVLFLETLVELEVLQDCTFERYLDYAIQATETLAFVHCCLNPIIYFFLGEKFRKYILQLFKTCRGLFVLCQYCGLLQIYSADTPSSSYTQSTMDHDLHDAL

[8] = target: T3, C-X-C chemokine receptor type 2 (Homo sapiens, UniProt P25025); type: cell membranes, Membrane; conditions: cho-k1; further: in other assays of this panel Not Active means under 50% inhibition at 10 µM
T3 sequence (P25025 whole entry): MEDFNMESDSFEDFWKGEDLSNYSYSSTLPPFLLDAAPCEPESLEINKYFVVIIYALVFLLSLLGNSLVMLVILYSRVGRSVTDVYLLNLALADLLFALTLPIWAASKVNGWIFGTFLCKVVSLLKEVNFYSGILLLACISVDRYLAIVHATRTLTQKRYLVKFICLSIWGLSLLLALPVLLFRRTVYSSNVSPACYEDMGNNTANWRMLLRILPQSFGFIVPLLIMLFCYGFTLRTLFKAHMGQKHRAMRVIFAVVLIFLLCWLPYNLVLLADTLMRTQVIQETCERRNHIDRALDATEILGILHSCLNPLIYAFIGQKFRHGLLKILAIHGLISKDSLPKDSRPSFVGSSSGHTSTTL

[9] = DRUGMATRIX: Glutamate, AMPA radioligand binding (ligand: [3H] AMPA); type: cell membranes, Rattus norvegicus, Wistar, Cerebral cortex, Membrane; conditions: Not Active = under 50% inhibition at 10 µM
[10] = DRUGMATRIX: Glutamate, NMDA, Agonism radioligand binding (ligand: [3H] CGP-39653); type: cell membranes, Rattus norvegicus, Wistar, Cerebral cortex, Membrane; conditions: Not Active = under 50% inhibition at 10 µM
[11] = target: Insulin receptor (Rattus norvegicus, UniProt P15127); type: cell membranes, Wistar, Liver, Membrane; further: in other assays of this panel Not Active means under 50% inhibition at 10 µM
Sequence of Insulin receptor (P15127 27-759 limits assumed): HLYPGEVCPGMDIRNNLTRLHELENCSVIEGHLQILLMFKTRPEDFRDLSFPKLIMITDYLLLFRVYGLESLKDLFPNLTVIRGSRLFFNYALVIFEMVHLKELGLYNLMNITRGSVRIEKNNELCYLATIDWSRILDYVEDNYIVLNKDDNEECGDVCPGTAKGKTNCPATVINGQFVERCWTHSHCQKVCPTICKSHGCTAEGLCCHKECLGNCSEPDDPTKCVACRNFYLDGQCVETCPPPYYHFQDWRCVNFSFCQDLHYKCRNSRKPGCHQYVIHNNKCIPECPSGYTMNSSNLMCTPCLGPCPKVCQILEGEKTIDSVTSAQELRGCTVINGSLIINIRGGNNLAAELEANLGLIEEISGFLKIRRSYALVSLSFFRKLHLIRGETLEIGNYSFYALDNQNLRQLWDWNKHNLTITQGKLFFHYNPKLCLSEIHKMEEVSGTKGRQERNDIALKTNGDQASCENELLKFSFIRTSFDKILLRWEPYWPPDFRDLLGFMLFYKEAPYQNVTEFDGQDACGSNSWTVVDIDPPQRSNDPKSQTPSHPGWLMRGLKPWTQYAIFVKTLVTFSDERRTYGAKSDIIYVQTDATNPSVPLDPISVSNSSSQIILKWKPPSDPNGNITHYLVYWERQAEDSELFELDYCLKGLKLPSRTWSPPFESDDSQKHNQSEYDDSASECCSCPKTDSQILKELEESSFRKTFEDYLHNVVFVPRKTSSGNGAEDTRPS
Sequence of Insulin receptor (P15127 764-1383 limits assumed): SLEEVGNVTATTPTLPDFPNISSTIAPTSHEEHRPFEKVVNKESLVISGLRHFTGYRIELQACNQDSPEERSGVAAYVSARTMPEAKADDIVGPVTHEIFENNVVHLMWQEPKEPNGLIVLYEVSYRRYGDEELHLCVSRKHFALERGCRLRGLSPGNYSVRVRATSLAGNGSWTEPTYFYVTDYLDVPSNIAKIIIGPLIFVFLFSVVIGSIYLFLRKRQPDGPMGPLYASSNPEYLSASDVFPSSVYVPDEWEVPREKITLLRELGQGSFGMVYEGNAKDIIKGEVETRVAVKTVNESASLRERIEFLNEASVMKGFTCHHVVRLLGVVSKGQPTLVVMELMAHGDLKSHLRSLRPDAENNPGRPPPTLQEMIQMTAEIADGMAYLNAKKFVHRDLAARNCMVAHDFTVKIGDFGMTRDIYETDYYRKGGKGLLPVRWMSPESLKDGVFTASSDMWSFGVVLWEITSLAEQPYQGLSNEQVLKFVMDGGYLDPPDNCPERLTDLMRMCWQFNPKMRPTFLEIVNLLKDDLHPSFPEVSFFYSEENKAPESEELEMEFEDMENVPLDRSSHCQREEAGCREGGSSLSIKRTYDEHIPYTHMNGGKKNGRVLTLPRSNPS

[12] = target: Melanocortin receptor 4 (Homo sapiens, UniProt P32245); type: cell membranes, Membrane; conditions: hek293; further: in other assays of this panel Not Active means under 50% inhibition at 10 µM
Sequence of Melanocortin receptor 4 (P32245 whole entry): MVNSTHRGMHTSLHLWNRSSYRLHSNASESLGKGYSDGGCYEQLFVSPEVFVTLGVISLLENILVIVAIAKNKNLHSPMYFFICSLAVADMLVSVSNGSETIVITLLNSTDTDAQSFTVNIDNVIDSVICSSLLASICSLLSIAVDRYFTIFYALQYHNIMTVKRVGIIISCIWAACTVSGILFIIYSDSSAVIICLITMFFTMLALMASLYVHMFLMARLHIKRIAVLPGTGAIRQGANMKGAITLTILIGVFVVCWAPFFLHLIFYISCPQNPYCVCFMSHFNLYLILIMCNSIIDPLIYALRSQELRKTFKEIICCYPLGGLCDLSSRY

[13] = target: T4, Muscarinic acetylcholine receptor M2 (Homo sapiens, UniProt P08172); type: cell membranes, CHO-K1, Membrane; conditions: cho-k1; further: in other assays of this panel Not Active means under 50% inhibition at 10 µM
T4 sequence (P08172 whole entry): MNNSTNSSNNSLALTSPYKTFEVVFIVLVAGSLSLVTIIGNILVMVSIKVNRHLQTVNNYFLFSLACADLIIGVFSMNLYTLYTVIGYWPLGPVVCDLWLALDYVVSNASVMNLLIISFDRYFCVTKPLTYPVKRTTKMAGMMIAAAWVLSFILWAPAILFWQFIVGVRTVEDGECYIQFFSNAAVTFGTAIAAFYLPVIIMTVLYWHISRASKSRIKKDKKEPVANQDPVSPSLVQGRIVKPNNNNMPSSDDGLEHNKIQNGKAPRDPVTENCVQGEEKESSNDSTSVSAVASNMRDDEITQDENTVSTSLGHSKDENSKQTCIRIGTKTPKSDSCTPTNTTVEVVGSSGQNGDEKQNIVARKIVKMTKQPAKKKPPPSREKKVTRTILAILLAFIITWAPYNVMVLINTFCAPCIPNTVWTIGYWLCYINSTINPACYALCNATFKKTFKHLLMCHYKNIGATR

[14] = DRUGMATRIX: Nicotinic Acetylcholine radioligand binding (ligand: [125I] Epibatidine); type: cell membranes, Membrane; conditions: imr-32; Not Active = under 50% inhibition at 10 µM
[15] = target: Delta-type opioid receptor (Homo sapiens, UniProt P41143); type: cell membranes, HEK293, Membrane; conditions: hek293; further: in other assays of this panel Not Active means under 50% inhibition at 10 µM
Sequence of Delta-type opioid receptor (P41143 whole entry): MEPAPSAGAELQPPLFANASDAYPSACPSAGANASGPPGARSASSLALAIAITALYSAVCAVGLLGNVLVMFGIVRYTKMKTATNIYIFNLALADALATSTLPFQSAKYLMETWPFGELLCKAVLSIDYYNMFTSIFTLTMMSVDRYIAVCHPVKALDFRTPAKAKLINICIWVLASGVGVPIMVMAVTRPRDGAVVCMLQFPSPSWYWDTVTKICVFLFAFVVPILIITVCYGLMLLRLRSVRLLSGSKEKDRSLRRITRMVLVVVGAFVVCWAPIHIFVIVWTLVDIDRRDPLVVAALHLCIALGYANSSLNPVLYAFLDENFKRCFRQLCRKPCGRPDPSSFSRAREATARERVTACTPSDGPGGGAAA

[16] = target: Protein phosphatase 3 catalytic subunit alpha (Homo sapiens, UniProt Q08209); design: species or system Escherichia coli
[17] = target: Epidermal growth factor receptor (Homo sapiens, UniProt P00533); experiment: DRUGMATRIX: Protein Tyrosine Kinase, EGF Receptor enzyme inhibition (substrate: Poly(Glu:Tyr)); type: cell-based, Insect cells; conditions: insect cells; Not Active = under 50% inhibition at 10 µM
Sequence of Epidermal growth factor receptor (P00533 whole entry): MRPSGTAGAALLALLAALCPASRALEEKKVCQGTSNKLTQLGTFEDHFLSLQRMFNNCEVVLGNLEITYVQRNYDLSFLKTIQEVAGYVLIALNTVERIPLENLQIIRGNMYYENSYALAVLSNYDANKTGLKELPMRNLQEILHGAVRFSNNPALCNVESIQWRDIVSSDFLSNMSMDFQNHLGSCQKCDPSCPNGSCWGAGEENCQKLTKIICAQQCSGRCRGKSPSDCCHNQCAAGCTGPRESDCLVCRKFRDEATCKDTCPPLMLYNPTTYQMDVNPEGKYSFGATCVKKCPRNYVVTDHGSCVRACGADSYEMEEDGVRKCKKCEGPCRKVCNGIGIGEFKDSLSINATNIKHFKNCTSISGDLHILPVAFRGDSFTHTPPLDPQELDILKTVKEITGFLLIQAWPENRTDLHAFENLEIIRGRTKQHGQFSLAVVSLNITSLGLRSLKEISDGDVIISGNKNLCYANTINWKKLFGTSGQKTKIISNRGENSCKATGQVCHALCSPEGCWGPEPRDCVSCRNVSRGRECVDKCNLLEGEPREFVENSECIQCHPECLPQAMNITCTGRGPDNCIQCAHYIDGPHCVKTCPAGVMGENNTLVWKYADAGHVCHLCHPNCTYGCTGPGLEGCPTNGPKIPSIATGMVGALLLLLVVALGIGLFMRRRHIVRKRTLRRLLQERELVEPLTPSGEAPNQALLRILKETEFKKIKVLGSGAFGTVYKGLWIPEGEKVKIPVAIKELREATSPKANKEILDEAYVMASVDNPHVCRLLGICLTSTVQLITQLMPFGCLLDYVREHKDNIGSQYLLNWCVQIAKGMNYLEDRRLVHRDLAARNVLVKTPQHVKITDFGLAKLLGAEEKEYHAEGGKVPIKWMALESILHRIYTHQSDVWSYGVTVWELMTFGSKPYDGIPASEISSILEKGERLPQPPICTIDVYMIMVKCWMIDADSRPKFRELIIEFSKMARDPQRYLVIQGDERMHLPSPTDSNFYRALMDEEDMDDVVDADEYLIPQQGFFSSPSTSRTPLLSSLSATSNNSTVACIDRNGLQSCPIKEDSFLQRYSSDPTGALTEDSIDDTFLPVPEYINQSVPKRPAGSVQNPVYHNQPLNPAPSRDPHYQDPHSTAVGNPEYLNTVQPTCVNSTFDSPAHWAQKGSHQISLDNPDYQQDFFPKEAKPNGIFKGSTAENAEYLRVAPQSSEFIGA

[18] = target: Tyrosine-protein kinase Lck (Homo sapiens, UniProt P06239); experiment: DRUGMATRIX: Protein Tyrosine Kinase, LCK enzyme inhibition (substrate: Poly(Glu:Tyr)); type: cell-based, Insect cells; conditions: insect cells; Not Active = under 50% inhibition at 10 µM
[19] = target: Acetylcholinesterase (Homo sapiens, UniProt P22303); experiment: DRUGMATRIX: Acetylcholinesterase enzyme inhibition (substrate: acetylthiocholine); type: cell-based, HEK293; conditions: hek293; Not Active = under 50% inhibition at 10 µM
Sequence of Acetylcholinesterase (P22303 whole entry): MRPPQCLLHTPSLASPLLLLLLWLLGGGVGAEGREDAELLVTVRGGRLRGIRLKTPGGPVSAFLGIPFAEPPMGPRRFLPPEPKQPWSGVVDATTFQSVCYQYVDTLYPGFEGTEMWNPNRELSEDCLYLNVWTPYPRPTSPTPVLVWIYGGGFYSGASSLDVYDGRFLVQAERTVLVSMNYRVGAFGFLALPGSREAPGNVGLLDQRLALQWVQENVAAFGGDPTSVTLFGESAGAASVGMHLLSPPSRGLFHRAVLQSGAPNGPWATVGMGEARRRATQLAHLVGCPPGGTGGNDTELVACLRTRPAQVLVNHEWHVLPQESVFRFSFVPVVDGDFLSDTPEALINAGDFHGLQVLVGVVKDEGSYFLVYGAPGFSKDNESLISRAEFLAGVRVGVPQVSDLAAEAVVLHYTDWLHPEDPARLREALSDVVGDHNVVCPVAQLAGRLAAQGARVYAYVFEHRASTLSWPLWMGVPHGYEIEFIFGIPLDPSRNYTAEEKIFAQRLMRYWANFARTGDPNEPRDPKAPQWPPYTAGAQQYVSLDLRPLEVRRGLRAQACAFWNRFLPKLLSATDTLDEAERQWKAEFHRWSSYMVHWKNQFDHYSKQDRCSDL

Sequence of 5-hydroxytryptamine receptor 2B (P41595 whole entry): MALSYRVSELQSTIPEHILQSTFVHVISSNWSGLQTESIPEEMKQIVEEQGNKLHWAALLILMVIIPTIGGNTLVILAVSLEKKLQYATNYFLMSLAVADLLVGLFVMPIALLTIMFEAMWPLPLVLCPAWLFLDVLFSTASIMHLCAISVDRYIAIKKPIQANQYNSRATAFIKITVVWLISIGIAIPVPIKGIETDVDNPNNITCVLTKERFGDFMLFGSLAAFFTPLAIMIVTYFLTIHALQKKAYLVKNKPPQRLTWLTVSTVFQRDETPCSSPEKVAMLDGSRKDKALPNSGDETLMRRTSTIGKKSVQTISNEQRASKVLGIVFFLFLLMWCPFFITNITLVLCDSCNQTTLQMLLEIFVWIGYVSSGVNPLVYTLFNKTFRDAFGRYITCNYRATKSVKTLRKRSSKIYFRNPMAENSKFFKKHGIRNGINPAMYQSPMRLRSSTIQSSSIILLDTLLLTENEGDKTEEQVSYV

C=CC[C@@H]1/C=C(\C)C[C@H](C)C[C@H](OC)[C@H]2O[C@@](O)(C(=O)C(=O)N3CCCC[C@H]3C(=O)O[C@H](/C(C)=C/[C@@H]3CC[C@@H](O)[C@H](OC)C3)[C@H](C)[C@@H](O)CC1=O)[C@H](C)C[C@@H]2OC [TACROLIMUS ANHYDROUS]
Not Active: IC50 [1] | IC50 [2] | IC50 [3] | IC50 [4] | IC50 [5] | IC50 [6] | IC50 [7] | IC50 [8] | IC50 [9] | Ki [9] | IC50 [10] | Ki [10] | IC50 [11] | IC50 [12] | IC50 [13] | IC50 [14] | Ki [14] | IC50 [15] | IC50 [16] | IC50 [17] | IC50 [18] | IC50 [19]

CC1CN(c2cc3c(cc2F)c(=O)c(C(=O)O)cn3-c2ccc(F)cc2F)CCN1 (centres undefined) [TEMAFLOXACIN]
Not Active: IC50 [1] | IC50 [2] | IC50 [3] | IC50 [4] | IC50 [5] | IC50 [6] | IC50 [7] | IC50 [8] | IC50 [9] | Ki [9] | IC50 [10] | Ki [10] | IC50 [11] | IC50 [12] | IC50 [13] | IC50 [14] | Ki [14] | IC50 [15] | IC50 [16] | IC50 [17] | IC50 [18] | IC50 [19]

CC(C)(C)NCC(O)c1cc(O)cc(O)c1 (centres undefined) [TERBUTALINE]
Not Active: IC50 [1] | IC50 [2] | IC50 [3] | IC50 [4] | IC50 [5] | IC50 [6] | IC50 [7] | IC50 [8] | IC50 [9] | Ki [9] | IC50 [10] | Ki [10] | IC50 [11] | IC50 [12] | IC50 [13] | IC50 [14] | Ki [14] | IC50 [15] | IC50 [16] | IC50 [17] | IC50 [18] | IC50 [19]

CN(C)[C@@H]1C(O)=C(C(N)=O)C(=O)[C@@]2(O)C(O)=C3C(=O)c4c(O)cccc4[C@@](C)(O)[C@H]3C[C@@H]12 [TETRACYCLINE]
Not Active: IC50 [1] | IC50 [2] | IC50 [3] | IC50 [4] | IC50 [5] | IC50 [6] | IC50 [7] | IC50 [8] | IC50 [9] | Ki [9] | IC50 [10] | Ki [10] | IC50 [11] | IC50 [12] | IC50 [13] | IC50 [14] | Ki [14] | IC50 [15] | IC50 [16] | IC50 [17] | IC50 [18] | IC50 [19]

c1ccc2[nH]c(-c3cscn3)nc2c1 [THIABENDAZOLE]
Not Active: IC50 [1] | IC50 [2] | IC50 [3] | IC50 [4] | IC50 [5] | IC50 [6] | IC50 [7] | IC50 [8] | IC50 [9] | Ki [9] | IC50 [10] | Ki [10] | IC50 [11] | IC50 [12] | IC50 [13] | IC50 [14] | Ki [14] | IC50 [15] | IC50 [16] | IC50 [17] | IC50 [18] | IC50 [19]

Cc1ccc(C(=O)C(C)CN2CCCCC2)cc1 (centres undefined) [TOLPERISONE]
Not Active: IC50 [1] | IC50 [2] | IC50 [3] | IC50 [4] | IC50 [5] | IC50 [6] | IC50 [7] | IC50 [8] | IC50 [9] | Ki [9] | IC50 [10] | Ki [10] | IC50 [11] | IC50 [12] | IC50 [13] | IC50 [14] | Ki [14] | IC50 [15] | IC50 [16] | IC50 [17] | IC50 [18] | IC50 [19]

NC(CO)(CO)CO [TROMETHAMINE]
Not Active: IC50 [1] | IC50 [2] | IC50 [3] | IC50 [4] | IC50 [5] | IC50 [6] | IC50 [7] | IC50 [8] | IC50 [9] | Ki [9] | IC50 [10] | Ki [10] | IC50 [11] | IC50 [12] | IC50 [13] | IC50 [14] | Ki [14] | IC50 [15] | IC50 [16] | IC50 [17] | IC50 [18] | IC50 [19]
